# Experimental data as given in PubChem BioAssay AID1259407 (Chemical Carcinogenesis Research Information System (CCRIS), 2018).
# Activity calls are given as the source filed them. The rule behind the calls is not given here.
# System: CCRIS mutagenicity, Ames/micronucleus/aberration tests
# Assay: CCRIS mutagenicity studies
# [1] = Test System: AMES SALMONELLA TYPHIMURIUM, Strain/Indicator: TA98, Metabolic Activation: NONE, Method: STANDARD PLATE
# [2] = Test System: AMES SALMONELLA TYPHIMURIUM, Strain/Indicator: TA100, Metabolic Activation: NONE, Method: STANDARD PLATE
smiles,measurement,setting,value
Nc1cc(-c2ccncc2)c[nH]c1=O,mutagenic call,"Test System: AMES SALMONELLA TYPHIMURIUM, Strain/Indicator: TA97, Metabolic Activation: NONE",inactive; negative
same,mutagenic call,"Test System: AMES SALMONELLA TYPHIMURIUM, Strain/Indicator: TA97, Metabolic Activation: S-9",inactive; negative
same,mutagenic call,"Test System: AMES SALMONELLA TYPHIMURIUM, Strain/Indicator: TA98, Metabolic Activation: NONE",inactive; negative
same,mutagenic call,[1],inactive; negative
same,mutagenic call,"Test System: AMES SALMONELLA TYPHIMURIUM, Strain/Indicator: TA98, Metabolic Activation: RAT, LIVER, S-9, Method: STANDARD PLATE",inactive; negative
same,mutagenic call,"Test System: AMES SALMONELLA TYPHIMURIUM, Strain/Indicator: TA98, Metabolic Activation: S-9",inactive; negative
same,mutagenic call,[2],inactive; negative
same,mutagenic call,"Test System: AMES SALMONELLA TYPHIMURIUM, Strain/Indicator: TA100, Metabolic Activation: RAT, LIVER, S-9, Method: STANDARD PLATE",inactive; negative
same,mutagenic call,"Test System: AMES SALMONELLA TYPHIMURIUM, Strain/Indicator: TA100, Metabolic Activation: S-9",inactive; negative
same,mutagenic call,"Test System: AMES SALMONELLA TYPHIMURIUM, Strain/Indicator: TA102, Metabolic Activation: NONE",inactive; negative
same,mutagenic call,"Test System: AMES SALMONELLA TYPHIMURIUM, Strain/Indicator: TA102, Metabolic Activation: S-9",inactive; negative
same,mutagenic call,"Test System: AMES SALMONELLA TYPHIMURIUM, Strain/Indicator: TA1535, Metabolic Activation: NONE, Method: STANDARD PLATE",inactive; negative
same,mutagenic call,"Test System: AMES SALMONELLA TYPHIMURIUM, Strain/Indicator: TA1535, Metabolic Activation: RAT, LIVER, S-9, Method: STANDARD PLATE",inactive; negative
same,mutagenic call,"Test System: AMES SALMONELLA TYPHIMURIUM, Strain/Indicator: TA1537, Metabolic Activation: NONE, Method: STANDARD PLATE",inactive; negative
same,mutagenic call,"Test System: AMES SALMONELLA TYPHIMURIUM, Strain/Indicator: TA1537, Metabolic Activation: RAT, LIVER, S-9, Method: STANDARD PLATE",inactive; negative
same,mutagenic call,"Test System: AMES SALMONELLA TYPHIMURIUM, Strain/Indicator: TA1538, Metabolic Activation: NONE, Method: STANDARD PLATE",inactive; negative
same,mutagenic call,"Test System: AMES SALMONELLA TYPHIMURIUM, Strain/Indicator: TA1538, Metabolic Activation: RAT, LIVER, S-9, Method: STANDARD PLATE",inactive; negative
O=S1OCC2C(CO1)C1(Cl)C(Cl)=C(Cl)C2(Cl)C1(Cl)Cl (centres undefined),mutagenic call,"End Point: IN VITRO CHROMOSOMAL ABERRATIONS, Test System: HUMAN PERIPHERAL BLOOD LYMPHOCYTES, Metabolic Activation: NONE",active; positive (structural changes)
same,mutagenic call,"End Point: In vitro chromosomal aberrations, Test System: Human (one male) lymphocytes, Metabolic Activation: None",inactive; negative. (200 ug/ml was toxic to the cells.)
same,mutagenic call,"End Point: In vitro chromosomal aberrations, Test System: Human (one male) lymphocytes, Metabolic Activation: Rat, Liver, S-9",inactive; negative. (200 ug/ml was toxic to the cells.)
same,mutagenic call,"End Point: In vitro chromosomal aberrations, Test System: Human lymphocytes, Metabolic Activation: None",active; positive (structural changes and ploidy)
same,mutagenic call,"Test System: AMES SALMONELLA TYPHIMURIUM, Strain/Indicator: TA97A, Metabolic Activation: NONE, Method: PREINCUBATION",active; positive
same,mutagenic call,"Test System: AMES SALMONELLA TYPHIMURIUM, Strain/Indicator: TA97A, Metabolic Activation: NONE, Method: STANDARD PLATE",inactive; negative
same,mutagenic call,"Test System: AMES SALMONELLA TYPHIMURIUM, Strain/Indicator: TA97A, Metabolic Activation: RAT, CECAL CELL FREE EXTRACT, Method: STANDARD PLATE",inactive; negative
same,mutagenic call,"Test System: AMES SALMONELLA TYPHIMURIUM, Strain/Indicator: TA97A, Metabolic Activation: RAT, LIVER, S-9, AROCLOR 1254, Method: STANDARD PLATE",inactive; negative
same,mutagenic call,"Test System: AMES SALMONELLA TYPHIMURIUM, Strain/Indicator: TA97A, Metabolic Activation: RAT, LIVER, S-9, PHENOBARBITAL, Method: PREINCUBATION",active; positive
same,mutagenic call,"Test System: AMES SALMONELLA TYPHIMURIUM, Strain/Indicator: TA97A, Metabolic Activation: RAT, LIVER, S-9, PHENOBARBITAL, Method: STANDARD PLATE",inactive; negative
same,mutagenic call,"Test System: AMES SALMONELLA TYPHIMURIUM, Strain/Indicator: TA98, Metabolic Activation: HAMSTER, LIVER, S-9, AROCLOR 1254 (10%), Method: PREINCUBATION",inactive; negative
same,mutagenic call,"Test System: AMES SALMONELLA TYPHIMURIUM, Strain/Indicator: TA98, Metabolic Activation: NONE, Method: PREINCUBATION",inactive; negative
same,mutagenic call,[1],inactive; negative
same,mutagenic call,"Test System: AMES SALMONELLA TYPHIMURIUM, Strain/Indicator: TA98, Metabolic Activation: RAT, CECAL CELL FREE EXTRACT, Method: STANDARD PLATE",inactive; negative
same,mutagenic call,"Test System: AMES SALMONELLA TYPHIMURIUM, Strain/Indicator: TA98, Metabolic Activation: RAT, LIVER, S-9, AROCLOR 1254 (10%), Method: PREINCUBATION",inactive; negative
same,mutagenic call,"Test System: AMES SALMONELLA TYPHIMURIUM, Strain/Indicator: TA98, Metabolic Activation: RAT, LIVER, S-9, AROCLOR 1254, Method: STANDARD PLATE",inactive; negative
same,mutagenic call,"Test System: AMES SALMONELLA TYPHIMURIUM, Strain/Indicator: TA98, Metabolic Activation: RAT, LIVER, S-9, PHENOBARBITAL, Method: PREINCUBATION",inactive; negative
same,mutagenic call,"Test System: AMES SALMONELLA TYPHIMURIUM, Strain/Indicator: TA98, Metabolic Activation: RAT, LIVER, S-9, PHENOBARBITAL, Method: STANDARD PLATE",inactive; negative
same,mutagenic call,"Test System: AMES SALMONELLA TYPHIMURIUM, Strain/Indicator: TA100, Metabolic Activation: HAMSTER, LIVER, S-9, AROCLOR 1254 (10%), Method: PREINCUBATION",inactive; negative
same,mutagenic call,"Test System: AMES SALMONELLA TYPHIMURIUM, Strain/Indicator: TA100, Metabolic Activation: NONE, Method: PREINCUBATION",inactive; negative
same,mutagenic call,[2],inactive; negative
same,mutagenic call,"Test System: AMES SALMONELLA TYPHIMURIUM, Strain/Indicator: TA100, Metabolic Activation: RAT, CECAL CELL FREE EXTRACT, Method: STANDARD PLATE",inactive; negative
same,mutagenic call,"Test System: AMES SALMONELLA TYPHIMURIUM, Strain/Indicator: TA100, Metabolic Activation: RAT, LIVER, S-9, AROCLOR 1254 (10%), Method: PREINCUBATION",inactive; negative
same,mutagenic call,"Test System: AMES SALMONELLA TYPHIMURIUM, Strain/Indicator: TA100, Metabolic Activation: RAT, LIVER, S-9, AROCLOR 1254, Method: STANDARD PLATE",inactive; negative
same,mutagenic call,"Test System: AMES SALMONELLA TYPHIMURIUM, Strain/Indicator: TA100, Metabolic Activation: RAT, LIVER, S-9, PHENOBARBITAL, Method: PREINCUBATION",inactive; negative
same,mutagenic call,"Test System: AMES SALMONELLA TYPHIMURIUM, Strain/Indicator: TA100, Metabolic Activation: RAT, LIVER, S-9, PHENOBARBITAL, Method: STANDARD PLATE",inactive; negative
same,mutagenic call,"Test System: AMES SALMONELLA TYPHIMURIUM, Strain/Indicator: TA102, Metabolic Activation: NONE, Method: STANDARD PLATE",inactive; negative
same,mutagenic call,"Test System: AMES SALMONELLA TYPHIMURIUM, Strain/Indicator: TA102, Metabolic Activation: RAT, LIVER, S-9, PHENOBARBITAL, Method: PREINCUBATION",inactive; negative
same,mutagenic call,"Test System: AMES SALMONELLA TYPHIMURIUM, Strain/Indicator: TA102, Metabolic Activation: RAT, LIVER, S-9, PHENOBARBITAL, Method: STANDARD PLATE",inactive; negative
same,mutagenic call,"Test System: AMES SALMONELLA TYPHIMURIUM, Strain/Indicator: TA1535, Metabolic Activation: HAMSTER, LIVER, S-9, AROCLOR 1254 (10%), Method: PREINCUBATION",inactive; negative
same,mutagenic call,"Test System: AMES SALMONELLA TYPHIMURIUM, Strain/Indicator: TA1535, Metabolic Activation: NONE, Method: PREINCUBATION",inactive; negative
same,mutagenic call,"Test System: AMES SALMONELLA TYPHIMURIUM, Strain/Indicator: TA1535, Metabolic Activation: RAT, LIVER, S-9, AROCLOR 1254 (10%), Method: PREINCUBATION",inactive; negative
same,mutagenic call,"Test System: AMES SALMONELLA TYPHIMURIUM, Strain/Indicator: TA1537, Metabolic Activation: HAMSTER, LIVER, S-9, AROCLOR 1254 (10%), Method: PREINCUBATION",inactive; negative
same,mutagenic call,"Test System: AMES SALMONELLA TYPHIMURIUM, Strain/Indicator: TA1537, Metabolic Activation: NONE, Method: PREINCUBATION",inactive; negative
same,mutagenic call,"Test System: AMES SALMONELLA TYPHIMURIUM, Strain/Indicator: TA1537, Metabolic Activation: RAT, LIVER, S-9, AROCLOR 1254 (10%), Method: PREINCUBATION",inactive; negative
same,mutagenic call,"Test System: ESCHERICHIA COLI, Strain/Indicator: AB1157, Metabolic Activation: NONE, Method: PREINCUBATION",active; positive
same,mutagenic call,"Test System: UDS Rat hepatocytes, Strain/Indicator: Primary hepatocytes. Thy incorp, Metabolic Activation: None, Method: Autoradiography",inactive; negative. (toxic at 51 ug/ml)
